Assay results published in ChEMBL document CHEMBL6074641, “Polypharmacological Drug Design Guided by Integrating Phenotypic and Restricted Fragment Docking Strategies” (J Med Chem, 2024).
Active and inactive are the calls of the source. The calls are words filed in the database; no cut-off is given here.

Legend:
Mus musculus [1] = test: Anti-alzheimer activity against 8 month old 3xTg mouse model assessed as decrease in anxiety level at 2 to 10 mg/kg, po administered 4 times per week for 4 weeks; assay type: functional, organism-based; conditions: dose 2-10 mg/kg
Mus musculus [2] = test: Anti-alzheimer activity in 8 month old 3xTg mouse model assessed as reversal of transcriptomic changes in Plxnd1 at 10 mg/kg, po; assay type: functional, organism-based
[3] = molecular target: T1, Mitogen-activated protein kinase kinase kinase kinase 4 (Homo sapiens, UniProt O95819); test: Inhibition of MAP4K4 (unknown origin) at 1 uM
Microglia [4] = test: Anti-necroptosis activity in LPS/zVAD stimulated mouse primary microglia overexpressed with ALK assessed as reversal of translucent cytoplasm by TEM analysis; assay type: functional, cell-based
Microglia [5] = test: Anti-necroptosis activity in LPS/zVAD stimulated mouse primary microglia overexpressed with ALK assessed as reversal of severe membrane disruption by TEM analysis; assay type: functional, cell-based
Mus musculus [6] = test: Downregulation of RIPK1 phosphorylation in 3xTg mouse hippocampus at 2 to 10 mg/kg, po by immunohistochemistry analysis; assay type: functional, organism-based; conditions: dose 2-10 mg/kg
hERG (KCNH2) = hERG (KCNH2) (Homo sapiens, UniProt Q12809); test: Inhibition of human ERG expressed in CHO cells at 20 uM by Qpatch clamp method relative to control; assay type: toxicity, cell-based; conditions: CHO cells that express hERG
[7] = Tmax in C57BL/6 mouse plasma at 10 mg/kg, po measured upto 24 hrs by LC-MS/MS analysis; assay type: ADME, organism-based
Microglia [8] = test: Anti-necroptosis activity in LPS/zVAD stimulated mouse primary microglia transfected with HA-tagged MAP4K4 plasmid assessed as protection of microglia cells at 100 nM; assay type: functional, cell-based
Mus musculus [9] = test: Anti-alzheimer activity in 8 month old 3xTg mouse model assessed as reversal of transcriptomic changes in Pttg1 at 10 mg/kg, po; assay type: functional, organism-based
Cytochrome P450 3A5 = Cytochrome P450 3A5 (Homo sapiens, UniProt P20815); test: Inhibition of CYP3A5 (unknown origin) using midazolam as substrate incubated for 10 mins in presence of NADPH by LC-MS/MS analysis; assay type: ADME
Chain of Cytochrome P450 3A5 (P20815 whole entry): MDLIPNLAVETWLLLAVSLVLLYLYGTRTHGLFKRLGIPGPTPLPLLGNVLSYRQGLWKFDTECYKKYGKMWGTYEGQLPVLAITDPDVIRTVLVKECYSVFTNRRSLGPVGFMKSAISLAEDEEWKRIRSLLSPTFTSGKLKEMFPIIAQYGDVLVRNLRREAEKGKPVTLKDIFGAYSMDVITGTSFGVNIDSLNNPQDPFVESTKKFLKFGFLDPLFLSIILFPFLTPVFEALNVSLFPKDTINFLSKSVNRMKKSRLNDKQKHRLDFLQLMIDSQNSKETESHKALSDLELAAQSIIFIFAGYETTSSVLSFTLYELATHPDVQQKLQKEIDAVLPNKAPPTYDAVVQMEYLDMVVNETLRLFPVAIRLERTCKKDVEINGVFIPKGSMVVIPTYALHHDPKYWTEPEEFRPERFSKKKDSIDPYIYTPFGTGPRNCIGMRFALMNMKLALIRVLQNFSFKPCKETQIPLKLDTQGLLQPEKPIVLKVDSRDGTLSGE

[10] = Unbound plasma protein binding in human incubated for 24 hrs by HPLC based equilibrium dialysis method; assay type: ADME, cell-free
Mus musculus [11] = test: Anti-necroptosis activity in 3xTg mouse hippocampus assessed as reduction in Iba activation at 2 to 10 mg/kg, po; assay type: functional, organism-based; conditions: dose 2-10 mg/kg
Mus musculus [12] = test: Anti-alzheimer activity in 8 month old 3xTg mouse model assessed as reversal of transcriptomic changes in Lamc2 at 10 mg/kg, po; assay type: functional, organism-based
[13] = molecular target: T2, ALK tyrosine kinase receptor (Homo sapiens, UniProt Q9UM73); test: Inhibition of ALK (unknown origin) at 1 uM
Mus musculus [14] = test: Anti-alzheimer activity against 8 month old 3xTg mouse model assessed as improved learning ability at 2 to 10 mg/kg, po administered 4 times per week for 4 weeks; assay type: functional, organism-based; conditions: dose 2-10 mg/kg
Mus musculus [15] = test: Anti-necroptosis activity in 3xTg mouse hippocampus assessed as reduction in pMLKL activation at 2 to 10 mg/kg, po; assay type: functional, organism-based; conditions: dose 2-10 mg/kg
Mus musculus [16] = test: Anti-alzheimer activity against 8 month old 3xTg mouse model assessed as decrease in restlessness at 2 to 10 mg/kg, po administered 4 times per week for 4 weeks; assay type: functional, organism-based; conditions: dose 2-10 mg/kg
[17] = Anti-necroptosis activity in LPS/zVAD stimulated mouse primary microglia assessed as protection of microglia cells at 100 nM; assay type: functional
[18] = AUC(0 to t) in C57BL/6 mouse plasma at 10 mg/kg, po measured upto 24 hrs by LC-MS/MS analysis; assay type: ADME, organism-based
[19] = molecular target: Voltage-gated inwardly rectifying potassium channel KCNH2 (Homo sapiens, UniProt Q12809); test: Inhibition of human ERG expressed in CHO cells by Qpatch clamp method; assay type: toxicity, cell-based
Microglia [20] = test: Anti-necroptosis activity in LPS/zVAD stimulated mouse primary microglia assessed as reversal of severe membrane disruption by TEM analysis; assay type: functional, cell-based
Microglia [21] = test: Anti-necroptosis activity in LPS/zVAD stimulated mouse primary microglia assessed as reversal of mitochondrial swelling by TEM analysis; assay type: functional, cell-based
Mus musculus [22] = test: Anti-alzheimer activity against 5 month old APP/PS1 transgenic mouse model assessed as […] at 10 mg/kg, po administered 4 times per week for 4 weeks measured after 2 days; assay type: functional, organism-based; conditions: time 30.0 day
Mus musculus [23] = test: Anti-alzheimer activity in 8 month old 3xTg mouse model assessed as reversal of transcriptomic changes in Hba-a1 at 10 mg/kg, po; assay type: functional, organism-based
Mus musculus [24] = test: Anti-alzheimer activity against 5 month old APP/PS1 transgenic mouse model assessed as increase in searching frequency towards annulus at 10 mg/kg, po administered 4 times per week for 4 weeks; assay type: functional, organism-based
[25] = molecular target: Receptor-interacting serine/threonine-protein kinase 1 (Mus musculus) (UniProt Q60855); test: Inhibition of RIPK1 activation in mouse BV-2 cells by Western blotting analysis; assay type: cell-based; conditions: dose 4-100 nM
Chain of Receptor-interacting serine/threonine-protein kinase 1 (Mus musculus) (Q60855 whole entry): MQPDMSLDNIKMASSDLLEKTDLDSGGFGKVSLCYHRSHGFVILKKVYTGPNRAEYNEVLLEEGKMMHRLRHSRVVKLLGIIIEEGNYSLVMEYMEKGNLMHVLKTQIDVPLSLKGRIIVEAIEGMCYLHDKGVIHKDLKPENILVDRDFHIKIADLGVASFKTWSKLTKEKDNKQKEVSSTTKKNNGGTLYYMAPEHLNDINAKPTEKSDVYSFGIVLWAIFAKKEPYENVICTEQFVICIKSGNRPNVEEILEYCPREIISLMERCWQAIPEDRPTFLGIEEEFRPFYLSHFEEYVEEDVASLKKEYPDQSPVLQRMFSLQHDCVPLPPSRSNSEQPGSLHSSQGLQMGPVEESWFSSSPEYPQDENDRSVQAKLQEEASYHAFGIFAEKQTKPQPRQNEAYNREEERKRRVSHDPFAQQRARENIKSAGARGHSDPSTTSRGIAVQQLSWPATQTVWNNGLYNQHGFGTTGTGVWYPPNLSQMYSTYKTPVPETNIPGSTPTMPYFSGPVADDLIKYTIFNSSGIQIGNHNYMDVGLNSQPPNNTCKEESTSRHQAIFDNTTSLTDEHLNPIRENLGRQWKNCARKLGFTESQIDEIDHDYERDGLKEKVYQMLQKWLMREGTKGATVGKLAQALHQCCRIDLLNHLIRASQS

BV-2 [26] = test: Anti-necroptosis activity in mouse BV-2 cells at 10 uM preincubated with LPS for 11 hrs followed by compound addition for 1 hr and exposed to zVAD-fmk for another 24 hrs by Cellcounting-Lite 2.0 luminescent cell viability assay; assay type: functional, cell-based; conditions: time 25.0 hrs
BV-2 [27] = test: Anti-inflammatory activity against LPS/zVAD treated mouse BV-2 cells assessed as decrease in IL-1beta release at 100 nM by ELISA; assay type: functional, cell-based
[28] = molecular target: T2, ALK tyrosine kinase receptor; test: Inhibition of recombinant ALK (1060 to end residues) (unknown origin) expressed in Escherichia coli […] using IGF1Rtide as substrate preincubated for 15 mins followed by substrate and ATP addition and measured after 90 mins by ADP-Glo luminescence […] assay
Target sequence in this assay (Q9UM73 whole entry): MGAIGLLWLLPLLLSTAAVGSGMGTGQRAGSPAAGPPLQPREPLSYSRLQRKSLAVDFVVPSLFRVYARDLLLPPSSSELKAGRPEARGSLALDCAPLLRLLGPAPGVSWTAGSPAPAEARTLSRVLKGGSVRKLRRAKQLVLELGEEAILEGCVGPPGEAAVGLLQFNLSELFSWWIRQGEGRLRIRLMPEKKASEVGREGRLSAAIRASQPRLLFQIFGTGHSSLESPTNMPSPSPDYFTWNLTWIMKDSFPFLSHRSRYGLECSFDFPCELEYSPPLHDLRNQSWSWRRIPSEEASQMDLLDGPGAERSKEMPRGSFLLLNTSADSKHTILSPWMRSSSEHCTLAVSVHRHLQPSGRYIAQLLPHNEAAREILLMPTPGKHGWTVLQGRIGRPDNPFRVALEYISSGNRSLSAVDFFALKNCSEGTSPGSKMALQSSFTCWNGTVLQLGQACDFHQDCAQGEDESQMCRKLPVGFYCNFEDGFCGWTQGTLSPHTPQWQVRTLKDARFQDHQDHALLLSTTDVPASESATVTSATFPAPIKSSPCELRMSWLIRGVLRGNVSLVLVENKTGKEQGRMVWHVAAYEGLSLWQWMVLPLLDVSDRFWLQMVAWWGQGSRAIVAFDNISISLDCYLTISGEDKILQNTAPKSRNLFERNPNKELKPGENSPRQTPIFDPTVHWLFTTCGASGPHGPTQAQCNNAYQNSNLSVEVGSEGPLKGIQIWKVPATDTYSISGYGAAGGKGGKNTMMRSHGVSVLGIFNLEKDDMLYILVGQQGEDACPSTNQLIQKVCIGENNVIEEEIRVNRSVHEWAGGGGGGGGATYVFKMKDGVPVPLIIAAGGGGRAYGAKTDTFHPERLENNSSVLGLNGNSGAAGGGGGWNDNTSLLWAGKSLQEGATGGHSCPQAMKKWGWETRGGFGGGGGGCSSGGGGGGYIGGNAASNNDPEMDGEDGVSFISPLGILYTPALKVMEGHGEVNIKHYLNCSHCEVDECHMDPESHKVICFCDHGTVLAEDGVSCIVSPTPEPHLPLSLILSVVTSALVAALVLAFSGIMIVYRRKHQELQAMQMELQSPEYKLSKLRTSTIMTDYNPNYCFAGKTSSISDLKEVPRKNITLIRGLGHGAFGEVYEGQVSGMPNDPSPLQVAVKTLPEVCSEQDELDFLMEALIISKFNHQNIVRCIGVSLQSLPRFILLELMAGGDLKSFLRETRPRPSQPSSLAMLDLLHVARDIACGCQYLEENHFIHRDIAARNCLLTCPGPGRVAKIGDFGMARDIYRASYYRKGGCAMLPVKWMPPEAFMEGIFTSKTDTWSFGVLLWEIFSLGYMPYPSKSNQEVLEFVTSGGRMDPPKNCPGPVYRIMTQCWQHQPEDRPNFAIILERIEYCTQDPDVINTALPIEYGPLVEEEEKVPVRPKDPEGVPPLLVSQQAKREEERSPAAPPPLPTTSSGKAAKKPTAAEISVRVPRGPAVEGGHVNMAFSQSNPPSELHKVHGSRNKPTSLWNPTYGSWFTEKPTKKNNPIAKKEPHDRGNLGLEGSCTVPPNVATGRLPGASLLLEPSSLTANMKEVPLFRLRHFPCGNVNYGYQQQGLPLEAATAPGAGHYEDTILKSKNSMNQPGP

Microglia [29] = test: Anti-necroptosis activity in LPS/zVAD stimulated mouse primary microglia overexpressed with ALK assessed as reversal of mitochondrial swelling by TEM analysis; assay type: functional, cell-based
Cytochrome P450 2C8 = Cytochrome P450 2C8 (Homo sapiens, UniProt P10632); test: Inhibition of CYP2C8 (unknown origin) incubated for 10 mins in presence of NADPH by LC-MS/MS analysis; assay type: ADME
Chain of Cytochrome P450 2C8 (P10632 whole entry): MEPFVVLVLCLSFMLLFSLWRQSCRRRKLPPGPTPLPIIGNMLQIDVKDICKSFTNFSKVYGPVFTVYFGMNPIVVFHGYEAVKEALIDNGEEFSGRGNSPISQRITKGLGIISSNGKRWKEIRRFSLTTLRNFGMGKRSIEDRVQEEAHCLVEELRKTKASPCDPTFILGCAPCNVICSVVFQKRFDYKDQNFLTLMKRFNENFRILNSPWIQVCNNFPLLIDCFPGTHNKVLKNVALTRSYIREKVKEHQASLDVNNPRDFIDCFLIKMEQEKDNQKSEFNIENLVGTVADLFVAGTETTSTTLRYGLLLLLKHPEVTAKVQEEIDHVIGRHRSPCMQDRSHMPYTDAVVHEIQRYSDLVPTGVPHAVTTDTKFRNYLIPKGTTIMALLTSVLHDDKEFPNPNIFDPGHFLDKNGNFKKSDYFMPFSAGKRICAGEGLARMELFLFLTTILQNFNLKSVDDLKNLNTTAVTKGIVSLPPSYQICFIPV

Mus musculus [30] = test: Downregulation of ALK phosphorylation in 3xTg mouse hippocampus at 2 to 10 mg/kg, po by immunohistochemistry analysis; assay type: functional, organism-based; conditions: dose 2-10 mg/kg
[31] = molecular target: Mitogen-activated protein kinase kinase kinase kinase 4 (Mus musculus) (UniProt P97820); test: Inhibition of MAP4K4 activation in mouse BV-2 cells by Western blotting analysis; assay type: cell-based; conditions: dose 4-100 nM
[32] = molecular target: T1, Mitogen-activated protein kinase kinase kinase kinase 4; test: Inhibition of recombinant MAP4K4 (1 to 328 residues) (unknown origin) expressed in Escherichia coli BL21([…]) using MBP as substrate preincubated for 15 mins followed by substrate and ATP addition and measured after 90 mins by ADP-Glo luminescence […] assay
Target sequence in this assay (O95819 whole entry): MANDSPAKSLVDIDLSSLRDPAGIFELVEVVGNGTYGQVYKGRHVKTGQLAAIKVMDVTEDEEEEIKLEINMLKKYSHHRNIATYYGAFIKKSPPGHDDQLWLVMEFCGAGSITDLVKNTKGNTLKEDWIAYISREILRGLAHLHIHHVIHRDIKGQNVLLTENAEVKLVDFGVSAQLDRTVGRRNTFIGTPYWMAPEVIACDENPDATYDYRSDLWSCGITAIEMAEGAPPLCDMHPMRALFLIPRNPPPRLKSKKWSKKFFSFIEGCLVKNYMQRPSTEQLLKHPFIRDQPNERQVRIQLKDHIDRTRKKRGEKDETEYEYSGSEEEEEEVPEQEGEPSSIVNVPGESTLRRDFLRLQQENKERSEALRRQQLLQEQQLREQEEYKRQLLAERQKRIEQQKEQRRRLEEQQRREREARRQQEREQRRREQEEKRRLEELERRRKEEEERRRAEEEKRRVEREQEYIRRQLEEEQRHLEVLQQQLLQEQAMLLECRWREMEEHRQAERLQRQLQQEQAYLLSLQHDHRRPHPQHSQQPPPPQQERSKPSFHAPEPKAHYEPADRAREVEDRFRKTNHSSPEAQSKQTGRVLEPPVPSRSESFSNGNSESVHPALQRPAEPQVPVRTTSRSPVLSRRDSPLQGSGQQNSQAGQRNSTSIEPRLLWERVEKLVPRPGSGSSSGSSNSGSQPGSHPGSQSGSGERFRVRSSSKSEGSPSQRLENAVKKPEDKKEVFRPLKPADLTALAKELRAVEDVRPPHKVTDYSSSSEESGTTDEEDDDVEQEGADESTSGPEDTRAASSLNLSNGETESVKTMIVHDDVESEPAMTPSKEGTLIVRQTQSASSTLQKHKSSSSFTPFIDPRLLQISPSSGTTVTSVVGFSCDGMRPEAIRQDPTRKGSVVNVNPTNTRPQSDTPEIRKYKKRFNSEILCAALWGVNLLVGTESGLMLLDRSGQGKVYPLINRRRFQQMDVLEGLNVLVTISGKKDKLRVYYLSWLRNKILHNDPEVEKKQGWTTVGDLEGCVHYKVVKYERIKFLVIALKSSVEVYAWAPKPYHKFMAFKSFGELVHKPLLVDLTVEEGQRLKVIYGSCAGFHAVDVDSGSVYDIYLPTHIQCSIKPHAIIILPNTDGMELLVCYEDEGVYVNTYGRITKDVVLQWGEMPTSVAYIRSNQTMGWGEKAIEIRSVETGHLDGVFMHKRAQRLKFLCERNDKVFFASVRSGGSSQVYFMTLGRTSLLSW

Microglia [33] = test: Anti-necroptosis activity in LPS/zVAD stimulated mouse primary microglia overexpressed with RIPK1 assessed as reversal of severe membrane disruption by TEM analysis; assay type: functional, cell-based
Cytochrome P450 2D6 = Cytochrome P450 2D6 (Homo sapiens, UniProt P10635); test: Inhibition of CYP2D6 (unknown origin) using dextromethorphan as substrate incubated for 10 mins in presence of NADPH by LC-MS/MS analysis; assay type: ADME
Chain of Cytochrome P450 2D6 (P10635 whole entry): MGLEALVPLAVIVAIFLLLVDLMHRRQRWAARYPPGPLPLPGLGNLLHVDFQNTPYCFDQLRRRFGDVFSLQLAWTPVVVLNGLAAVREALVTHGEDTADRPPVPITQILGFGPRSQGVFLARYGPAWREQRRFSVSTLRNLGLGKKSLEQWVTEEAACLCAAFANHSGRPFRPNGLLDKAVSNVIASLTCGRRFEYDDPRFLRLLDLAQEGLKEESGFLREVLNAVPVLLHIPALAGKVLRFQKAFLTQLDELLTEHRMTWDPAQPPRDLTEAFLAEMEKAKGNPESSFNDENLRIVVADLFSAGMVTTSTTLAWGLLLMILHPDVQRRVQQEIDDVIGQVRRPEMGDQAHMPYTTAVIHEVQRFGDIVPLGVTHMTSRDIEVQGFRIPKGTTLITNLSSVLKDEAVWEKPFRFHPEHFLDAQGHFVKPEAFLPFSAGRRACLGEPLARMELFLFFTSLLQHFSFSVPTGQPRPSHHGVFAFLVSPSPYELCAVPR

Microglia [34] = test: Anti-necroptosis activity in LPS/zVAD stimulated mouse primary microglia transfected with flag-tagged RIPK1 plasmid assessed as protection of microglia cells at 100 nM; assay type: functional, cell-based

## Cc1cc(F)cc(Nc2ncc(Nc3ccc(SC(F)(F)F)cc3)cc2C(N)=O)c1
Mus musculus [1]
  Activity: Active
Mus musculus [2]
  Activity: Active
[3]
  inhibition: Active
Microglia [4]
  Activity: inactive
Microglia [5]
  Activity: inactive
Mus musculus [6]
  Activity: Active; Activity More Potent Than Nec-1
hERG (KCNH2)
  inhibition at 20 µM: 11.3%
[7]
  Tmax: 2.93 h
Microglia [8]
  Activity: inactive
Mus musculus [9]
  Activity: Active
Cytochrome P450 3A5
  IC50: > 10 µM
[10]
  Fu: 0.1%
Mus musculus [11]
  Activity: Active
Mus musculus [12]
  Activity: Active
[13]
  inhibition: Active
Mus musculus [14]
  Activity: Active
Mus musculus [15]
  Activity: Active
Mus musculus [16]
  Activity: Active
[17]
  Activity: 100%
[18]
  AUC(0-t) at 24 h: 10900 ng·h/mL
[19]
  IC50: > 20 µM
Microglia [20]
  Activity: Active
Microglia [21]
  Activity: Active
Mus musculus [22]
  Activity: Active
Mus musculus [23]
  Activity: Active
Mus musculus [24]
  Activity: Active
[25]
  inhibition: Dose-dependent-effect
BV-2 [26]
  Activity: Active
BV-2 [27]
  Activity: Active
[28]
  IC50: 0.62 µM
Microglia [29]
  Activity: inactive
Cytochrome P450 2C8
  IC50: 6.8 µM
Mus musculus [30]
  Activity: Active; Activity More Potent Than Nec-1
[31]
  inhibition: Dose-dependent-effect
[32]
  IC50: 0.41 µM
Microglia [33]
  Activity: inactive
Cytochrome P450 2D6
  IC50: > 10 µM
Microglia [34]
  Activity: inactive
